# Read-outs that look alike come from different tables or passages of the source.
# Legend:
# [1] = Log Po:w (octanol-water partition coefficient); assay type: physicochemical
# Description: TABLE 1 Model development and model parameters. | column: Value
# P-gp [2] = target: T1, P-gp (Homo sapiens, UniProt P08183); assay: P-gp inhibition (Ki calculated from IC50); assay type: in vitro ADME; conditions: calculated with IC50, substrate concentration and substrate Km
# [3] = Fraction unbound (fu) in human plasma; assay type: in vitro ADME
# CYP2C9 = CYP2C9 (Homo sapiens, UniProt P11712); assay: Intrinsic clearance in human recombinant CYP2C9
# CYP2C9, sequence (P11712 whole entry): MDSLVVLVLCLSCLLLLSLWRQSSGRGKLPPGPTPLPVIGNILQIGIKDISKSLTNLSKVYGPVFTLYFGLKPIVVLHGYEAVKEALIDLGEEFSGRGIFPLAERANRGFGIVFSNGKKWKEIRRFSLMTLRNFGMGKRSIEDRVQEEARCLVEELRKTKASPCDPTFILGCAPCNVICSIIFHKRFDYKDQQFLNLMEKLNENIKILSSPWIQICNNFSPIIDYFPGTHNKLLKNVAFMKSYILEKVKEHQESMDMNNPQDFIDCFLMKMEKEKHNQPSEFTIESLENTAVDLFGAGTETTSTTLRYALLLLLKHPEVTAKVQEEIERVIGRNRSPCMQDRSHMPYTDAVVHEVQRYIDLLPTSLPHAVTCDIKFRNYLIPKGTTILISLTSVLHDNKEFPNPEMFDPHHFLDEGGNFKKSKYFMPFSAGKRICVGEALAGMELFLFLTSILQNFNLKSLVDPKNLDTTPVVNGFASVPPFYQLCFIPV
# CYP2B6 = CYP2B6 mRNA induction in cultured human hepatocytes; assay type: cell-based; conditions: for EC50: human, cultured human hepatocytes
# CYP2C19 = CYP2C19 (Homo sapiens, UniProt P33261); assay: CYP2C19 inhibition in human liver microsomes
# CYP2C19, sequence (P33261 whole entry): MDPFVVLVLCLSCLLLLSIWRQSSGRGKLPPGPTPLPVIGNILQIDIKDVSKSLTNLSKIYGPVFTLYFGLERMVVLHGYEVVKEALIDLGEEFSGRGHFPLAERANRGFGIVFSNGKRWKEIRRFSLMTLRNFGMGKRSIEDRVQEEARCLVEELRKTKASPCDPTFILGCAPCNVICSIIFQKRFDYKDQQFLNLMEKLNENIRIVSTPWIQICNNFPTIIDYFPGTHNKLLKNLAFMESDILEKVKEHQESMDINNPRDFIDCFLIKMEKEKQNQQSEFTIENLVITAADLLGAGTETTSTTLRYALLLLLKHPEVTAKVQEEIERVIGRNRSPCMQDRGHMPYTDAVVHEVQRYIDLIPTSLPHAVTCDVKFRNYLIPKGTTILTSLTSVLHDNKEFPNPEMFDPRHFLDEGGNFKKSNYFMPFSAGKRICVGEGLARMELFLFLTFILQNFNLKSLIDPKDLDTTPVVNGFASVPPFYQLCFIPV
# Protocol: Ki=IC50/1+S/Km (1) Where IC50 signifies the half-maximum inhibitory concentration; S, the concentration of P450 marker substrate; and K m , the Michaelis constant within the Michaelis-Menten equation, which is in turn used to characterize substrate-enzyme binding kinetics.
# The Michaelis constant (K m ) of CYP2C9 incubated with diclofenac was obtained from reported data ([Lee et al., 2014]). Methods used to calculate the Ki of CYP2C19 and CYP2C9 were similar.
# OAT1 = target: T2, OAT1 (Homo sapiens, UniProt Q4U2R8); assay: Transporter substrate/inhibitor assessment, OAT1; assay type: in vitro ADME
# T2 sequence (Q4U2R8 1-563): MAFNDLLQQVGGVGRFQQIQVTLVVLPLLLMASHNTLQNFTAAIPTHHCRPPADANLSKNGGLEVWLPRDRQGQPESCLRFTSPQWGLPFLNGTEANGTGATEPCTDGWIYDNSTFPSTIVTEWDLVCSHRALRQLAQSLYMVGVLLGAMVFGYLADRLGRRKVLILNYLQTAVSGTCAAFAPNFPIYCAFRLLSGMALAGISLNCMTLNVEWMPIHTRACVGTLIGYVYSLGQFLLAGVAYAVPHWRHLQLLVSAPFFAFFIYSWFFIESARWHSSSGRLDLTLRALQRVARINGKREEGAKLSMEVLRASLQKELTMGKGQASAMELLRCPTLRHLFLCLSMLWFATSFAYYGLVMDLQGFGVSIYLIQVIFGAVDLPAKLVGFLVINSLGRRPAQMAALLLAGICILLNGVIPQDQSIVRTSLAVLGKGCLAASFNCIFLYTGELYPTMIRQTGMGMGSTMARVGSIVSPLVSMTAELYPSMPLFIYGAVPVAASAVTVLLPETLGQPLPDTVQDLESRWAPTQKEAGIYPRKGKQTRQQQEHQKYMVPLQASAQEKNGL
# CYP3A4 = CYP3A4 (Homo sapiens, UniProt P08684); conditions: recombinant enzyme
# CYP3A4, sequence (P08684 whole entry): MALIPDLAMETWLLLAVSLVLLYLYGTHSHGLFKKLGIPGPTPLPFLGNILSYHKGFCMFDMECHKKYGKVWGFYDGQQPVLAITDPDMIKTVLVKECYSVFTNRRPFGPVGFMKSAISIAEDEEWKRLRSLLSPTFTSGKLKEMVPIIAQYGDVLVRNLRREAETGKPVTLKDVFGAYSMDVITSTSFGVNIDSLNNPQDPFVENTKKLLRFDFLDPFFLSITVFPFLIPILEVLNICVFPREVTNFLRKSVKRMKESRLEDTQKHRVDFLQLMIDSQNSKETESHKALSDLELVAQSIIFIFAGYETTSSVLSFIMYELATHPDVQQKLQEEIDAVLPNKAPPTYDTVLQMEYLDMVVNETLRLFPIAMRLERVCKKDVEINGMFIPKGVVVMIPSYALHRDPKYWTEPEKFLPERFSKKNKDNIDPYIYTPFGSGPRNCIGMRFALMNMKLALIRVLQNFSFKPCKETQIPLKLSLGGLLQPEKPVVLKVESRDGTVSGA
# [4] = target: T3, BCRP (breast cancer resistance protein) (Homo sapiens, UniProt Q9UNQ0); assay: BCRP substrate and in vivo inhibition assessment
# T3 sequence (Q9UNQ0 1-655): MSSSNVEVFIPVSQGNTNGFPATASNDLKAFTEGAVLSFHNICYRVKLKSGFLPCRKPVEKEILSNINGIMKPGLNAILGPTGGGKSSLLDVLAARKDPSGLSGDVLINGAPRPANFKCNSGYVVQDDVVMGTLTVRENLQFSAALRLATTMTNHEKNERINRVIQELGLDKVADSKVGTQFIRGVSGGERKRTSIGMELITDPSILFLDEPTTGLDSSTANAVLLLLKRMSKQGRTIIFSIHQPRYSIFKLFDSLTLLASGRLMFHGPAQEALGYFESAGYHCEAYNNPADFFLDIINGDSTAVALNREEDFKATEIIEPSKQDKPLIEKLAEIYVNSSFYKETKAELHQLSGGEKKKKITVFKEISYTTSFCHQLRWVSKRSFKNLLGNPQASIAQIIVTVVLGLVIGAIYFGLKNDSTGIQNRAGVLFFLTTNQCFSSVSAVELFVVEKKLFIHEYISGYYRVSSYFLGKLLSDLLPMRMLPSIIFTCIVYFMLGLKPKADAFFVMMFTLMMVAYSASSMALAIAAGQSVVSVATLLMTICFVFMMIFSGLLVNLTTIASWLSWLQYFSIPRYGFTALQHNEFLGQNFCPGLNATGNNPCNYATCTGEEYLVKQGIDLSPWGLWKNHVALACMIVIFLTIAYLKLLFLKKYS
# Description: (§1) The effects of transporters expressed on the gut and liver have not been investigated.
# P-gp [5] = target: T1, P-gp; assay: P-gp substrate and in vivo inhibition assessment
# Description: as §1
# [6] = Food effect clinical study in Chinese patients with CML (NCT03882281); assay type: in vivo, human
# Description: In the first study, on food effects, 12 Chinese patients with CML were randomly divided into two groups (A and B) and the experiments divided into two periods. […] After a seven- day washout period, subjects in both groups took the drug interchangeably in period 2 (NCT03882281).
# [7] = Chinese CML patients, fed, 30 mg SD
# T1 sequence (P08183 whole entry): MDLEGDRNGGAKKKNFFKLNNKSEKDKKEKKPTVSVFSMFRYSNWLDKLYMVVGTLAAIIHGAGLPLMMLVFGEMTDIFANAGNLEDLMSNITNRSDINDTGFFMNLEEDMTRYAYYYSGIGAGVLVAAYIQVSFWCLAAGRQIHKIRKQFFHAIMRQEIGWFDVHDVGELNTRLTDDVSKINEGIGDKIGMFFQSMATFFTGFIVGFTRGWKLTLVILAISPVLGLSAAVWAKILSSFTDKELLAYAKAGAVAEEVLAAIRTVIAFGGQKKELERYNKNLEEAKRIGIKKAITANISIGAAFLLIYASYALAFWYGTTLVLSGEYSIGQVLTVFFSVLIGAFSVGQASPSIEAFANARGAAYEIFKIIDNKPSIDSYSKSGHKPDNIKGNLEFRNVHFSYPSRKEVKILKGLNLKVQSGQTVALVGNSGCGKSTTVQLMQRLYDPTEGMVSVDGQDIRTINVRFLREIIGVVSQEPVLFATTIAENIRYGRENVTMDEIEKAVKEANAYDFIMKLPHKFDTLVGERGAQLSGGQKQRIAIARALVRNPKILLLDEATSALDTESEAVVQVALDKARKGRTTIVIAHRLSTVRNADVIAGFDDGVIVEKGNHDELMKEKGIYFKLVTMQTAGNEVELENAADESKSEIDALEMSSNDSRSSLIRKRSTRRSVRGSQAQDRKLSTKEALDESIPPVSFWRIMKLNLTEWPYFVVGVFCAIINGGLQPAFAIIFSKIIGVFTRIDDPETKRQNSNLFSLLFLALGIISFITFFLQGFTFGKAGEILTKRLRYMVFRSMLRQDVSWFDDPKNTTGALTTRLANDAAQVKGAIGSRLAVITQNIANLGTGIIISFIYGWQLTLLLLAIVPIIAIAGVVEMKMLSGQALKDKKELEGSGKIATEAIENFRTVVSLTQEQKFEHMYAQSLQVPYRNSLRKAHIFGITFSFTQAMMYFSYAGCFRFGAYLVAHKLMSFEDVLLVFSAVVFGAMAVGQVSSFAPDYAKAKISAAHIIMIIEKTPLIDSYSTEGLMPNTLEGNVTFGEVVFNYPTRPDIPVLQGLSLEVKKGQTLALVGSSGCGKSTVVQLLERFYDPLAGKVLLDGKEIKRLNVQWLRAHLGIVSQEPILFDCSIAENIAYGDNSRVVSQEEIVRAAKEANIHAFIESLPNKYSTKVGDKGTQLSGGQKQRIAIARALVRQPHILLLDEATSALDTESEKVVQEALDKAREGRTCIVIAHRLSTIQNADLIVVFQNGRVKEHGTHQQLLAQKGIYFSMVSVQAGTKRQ
structure (smiles),measurement,setting,value
"Cc1ccc(C(=O)Nc2ccc(CN3CCN(C)CC3)c(C(F)(F)F)c2)cc1C#Cc1cnc2[nH]ncc2c1 [olverembatinib, Olverembatinib]",Log Po:w,[1],3.6
same,Ki,P-gp [2],2230 nM
same,fraction unbound,"[3]; mean of three test concentrations, read-out: mean fu (fu,p, fraction unbound in plasma)",0.0005
same,fraction unbound at 80 ng/ml,"[3]; test concentration 80 ng/ml, read-out: fu (N=3)",0.0007
same,fraction unbound at 400 ng/ml,"[3]; test concentration 400 ng/ml, read-out: fu (N=3)",0.0004
same,fraction unbound at 4000 ng/ml,"[3]; test concentration 4000 ng/ml, read-out: fu (N=3)",0.0004
same,CLint CYP2C9,CYP2C9,0.022 µL/min/pmol CYP
same,EC50,"CYP2B6; CYP2B6 mRNA, lot AIH, read-out: EC50",828 nM
same,EC50,"CYP2B6; CYP2B6 mRNA, lot HUM182851, read-out: EC50",290 nM
same,EC50,"CYP2B6; human hepatocytes, mRNA, mean of two lots, read-out: IndC50 CYP2B6 (Mean EC50)",559 nM
same,"CYP2B6 induction, strength",CYP2B6; in vitro studies,weak
same,Ki,CYP2C19,1920 nM
same,"CYP2C19 inhibition, strength",CYP2C19; microsomes,weak
same,substrate or inhibitor of OAT1,OAT1,neither a substrate nor inhibitor
same,CLint CYP3A4,CYP3A4,0.2 µL/min/pmol CYP
same,in vivo inhibition on BCRP,[4],no obvious in vivo inhibition
same,substrate of BCRP,[4],is a substrate
same,in vivo inhibition on P-gp,P-gp [5],no obvious in vivo inhibition
same,substrate of P-gp,P-gp [5],is a substrate
same,AUC Obs.,"[6]; Chinese CML patients, fasting, 30 mg SD",237 h?ng/mL
same,AUC Obs.,[6]; [7],276 h?ng/mL
same,Tmax Obs. (median),[6]; [7],6.00 h
same,half-life,"[6]; human, plasma, 30 mg, oral, patients with CML, data on file, read-out: mean apparent terminal elimination half-life (t1/2) (converted)",32.7 h
same,Tmax,"[6]; human, plasma, 30 mg, oral, patients with CML, data on file, read-out: median time to reach peak plasma concentration (Tmax)",6 h
same,Cmax,"[6]; human, plasma, oral, 30 mg, Chinese CML patients, fasting, 30 mg SD",8.72 ng/mL
same,Cmax,"[6]; human, plasma, oral, 30 mg, Chinese CML patients, fed, 30 mg SD",10.8 ng/mL
same,Tmax,"[6]; human, plasma, oral, Chinese CML patients, fasting, 30 mg SD, read-out: Tmax Obs. (median)",6 h

# — article PMC9792776 (Frontiers in Pharmacology, 2022)
